Test results published in PMC3411462, “Long-acting κ opioid antagonists nor-BNI, GNTI and JDTic: pharmacokinetics in mice and lipophilicity” (BMC Pharmacology, 2012).
Where “and” joins values, the source holds several entries; their conditions need not be identical. Equal values may be shown once. Read-outs that look alike come from different tables or passages of the source.

Legend:
mice = assay: Fatalities and behavioral effects after i.p. administration
[1] = Brain and plasma concentrations in mice after intraperitoneal administration (LC-MS-MS), non-compartmental analysis; assay type: in vivo; settings: for [drug],plasma (free base equivalent): listed as GNTI.2HCl.H2O; for [drug],plasma (free base equivalent) / concentration at 0.5 h / concentration at 1 h / concentration at 2 h / concentration at 4 h / concentration at 24 h / AUC(0-inf) / CL/F / Vd/F: 10 mg/kg
Description: Doses are reported by weight of the specified salt. […] Body mass was measured to ±0.1 g.
Mice were sacrificed by cervical dislocation, then decapitated for collection of brain and blood samples. Trunk blood was collected in 1.5 mL polypropylene micro-centrifuge tubes, shaken with a few crystals of EDTA and cooled in ice-water. Samples were centrifuged at 14,000 rpm (revolutions per minute) for 15 minutes at 3 °C, then stored in glass sample vials at −20 °C until analysis. Brains were removed and immersed for 30 seconds in 2-methylbutane over dry ice, then stored in polypropylene tubes at −20 °C until sample preparation. Sample tubes were thawed in ice-water, distilled water was added (2:1 by weight) and the brain homogenized with a probe sonicator for 3 minutes over ice-water (Fisher Sonic Dismembrator 300 at 35% power). The probe was rinsed with ethanol and distilled water between samples. Brain homogenate was stored in glass sample vials at −20 °C until analysis by LC-MS-MS.
(§1) Drug concentrations (ng mL^-1) refer to the free base, and were measured by liquid chromatography-tandem mass spectrometry (LC-MS-MS) as described previously. Briefly, samples were shaken with 3 volumes of methanol and centrifuged at 3000 g. Aliquots of the supernatants were diluted with 5 volumes of water containing an appropriate internal standard. Extracts from in vitro and in vivo experiments were analyzed by multiple reaction monitoring on an API3000 or API4000 LC-MS-MS system with electrospray ion source, controlled and analyzed using the Analyst software package (Applied Biosystems, Foster City, CA). Chromatography was conducted on a Sprite Armor C18 analytical column (20 × 2.1 mm, 10 μm particle size, Analytical Sales and Products, Pompton Plains, NJ) with a 0.5 μm PEEK guard filter. Compounds were eluted with a gradient from 2% to 95% acetonitrile in water, both containing 0.1% formic acid. Compounds were detected in positive ion mode, tuned to the mass transition with the largest intensity. Analyte concentrations were determined by comparison of analyte:internal standard peak area ratios to those of standards prepared in the appropriate matrices.
For calculation of mean concentrations, the earliest values below the MRC were substituted by MRC ÷ 2, as recommended elswhere. Pharmacokinetic parameters were calculated from mean concentrations using PKSolver, employing non-compartmental analysis for extravascular administration. Curves in figures were fitted using Origin 8.5 (OriginLab, Northampton, MA) using 2-compartment models. Confidence intervals and two-tailed p values (unpaired t test) were calculated using Graphpad Quickcalcs. One outlier was identified using Grubbs' test (p < 0.01) and excluded from the analysis; see Additional file 1.

[2] = Octanol-buffer distribution (log D7.4); assay type: physicochemical
Description: Phosphate-buffered saline (PBS, pH 7.4) and 1-octanol were mutually saturated by vigorous stirring at room temperature for 18 h, and then separated. Drug solutions of 0.1 mg mL^-1 in PBS were prepared, and 500 μL aliquots were added to 1.5 mL micro-centrifuge tubes with an equal volume of 1-octanol. Three samples were vortex-mixed for 1, 10 and 30 minutes respectively, then centrifuged at room temperature (12,000 rpm for 15 minutes). Aliquots of the upper octanol layer were removed by pipette. A disposable syringe was inserted while bubbling air through the upper layer, an aliquot of the lower PBS layer withdrawn, and the needle removed before transferring. Samples were stored in glass sample vials at −20 °C until analysis by LC-MS-MS.
as §1

[3] = Plasma binding (unbound fraction by ultracentrifugation); assay type: in vitro ADME; settings: 5 μM drug, mean, n = 3
Description: Unbound fractions in brain homogenate and plasma were determined by ultracentrifugation as described previously. Briefly, drug-spiked matrices (5 μM drug in plasma or brain homogenate) were centrifuged at 600,000 g for 5 h at 37 °C (plasma) or 5 °C (brain). Aliquots of the middle (water) layer were added to an equal volume of blank matrix and extracted with 5 volumes of acetonitrile containing internal standard. Aliquots of the original spiked matrix were mixed with an equal volume of blank matrix and 2 volumes of plasma ultrafiltrate (plasma) or phosphate-buffered saline (tissue) and extracted with 10 volumes of acetonitrile. Extracts were centrifuged and analyzed by LC-MS-MS. Fraction unbound was calculated from the ratio of concentration in the water layer to that in the original spiked matrix, corrected for dilution as described previously.

[4] = 0.5 h, 10 mg/kg i.p., individual mice
[5] = 1 h, 10 mg/kg i.p., individual mice
[6] = 2 h, 10 mg/kg i.p., individual mice
[7] = male, Swiss-Webster, mouse, ip, plasma NCA, 10 mg/kg i.p.

In the case of `N=C(N)Nc1ccc2[nH]c3c(c2c1)C[C@@]1(O)[C@H]2Cc4ccc(O)c5c4[C@@]1(CCN2CC1CC1)[C@H]3O5` [GNTI, 5’-guanidinonaltrindole], the Fatalities (mice; 10 mg kg^-1, 15 mice monitored for at least 30 minutes) is reported as “no fatalities”, the “Time to death after injection” value (mice; 30 mg kg^-1) is reported as ≤ 11 min and the Fatalities (mice; 30 mg kg^-1, three mice) is reported as “all three mice unexpectedly became ataxic, followed by convulsions and death”. The “Time of maximal mean plasma level” value ([1]; 10 mg kg^-1 i.p., mice) was 30 min, the “[drug],brain (free base equivalent)” value [1, 4] was <120 ng/g and the “[drug],plasma (free base equivalent)” value [1, 4] was 3610 ng/mL and 1790 ng/mL and 3840 ng/mL. The “[drug],brain (free base equivalent)” value [1, 5] was <120 ng/g, the “[drug],plasma (free base equivalent)” value [1, 5] was 1750 ng/mL and 2420 ng/mL and 4880 ng/mL and the “[drug],brain (free base equivalent)” value [1, 6] was <120 ng/g. For the same molecule, the “[drug],plasma (free base equivalent)” value [1, 6] was 1120 ng/mL and 3700 ng/mL and 2910 ng/mL, the “[drug],plasma (free base equivalent)” value ([1]; 4 h, 10 mg/kg i.p., individual mice) was 114 ng/mL and 206 ng/mL and the “[drug],plasma (free base equivalent)” value ([1]; 24 h, 10 mg/kg i.p., individual mice) was <13 ng/mL. For the same molecule, the “Brain levels (below MRC)” value ([1]; all timepoints, 10 mg kg^-1 i.p.) was < 120 ng/mL, the “C max,brain” value ([1]; brain, 10 mg kg^-1 i.p., mice) was < 120 ng/mL and the “Decline of mean plasma concentration from peak” value ([1]; by 24 hours, 10 mg kg^-1 i.p.) was “at least 98%”. For the same molecule, the Kp uu ([1]; male, Swiss-Webster, mouse, brain and plasma (unbound), intraperitoneal, postmortem samples, 13–18 minutes after 39 mg kg^-1 GNTI·2CF3CO2H, read-out: Cmax,brain,u/Cmax,p,u) was < 0.0007, the Kp ([1]; male, Swiss-Webster, mouse, brain and plasma, intraperitoneal, postmortem samples, 13–18 minutes after 39 mg kg^-1 GNTI·2CF3CO2H, read-out: Cmax,brain/Cmax,p) was 0.0085 and the concentration at 0.5 h ([1]; male, Swiss-Webster, mouse, brain, ip, 0.5 h, 10 mg/kg i.p., individual mice, read-out: [drug],brain (free base equivalent)) was < 120 ng/g. For the same molecule, the concentration at 0.5 h ([1]; male, Swiss-Webster, mouse, brain, ip, 0.5 h, 10 mg/kg i.p., read-out: mean (brain)) was < 120 ng/g, the concentration at 1 h ([1]; male, Swiss-Webster, mouse, brain, ip, 1 h, 10 mg/kg i.p., individual mice, read-out: [drug],brain (free base equivalent)) was < 120 ng/g and the concentration at 2 h ([1]; male, Swiss-Webster, mouse, brain, ip, 2 h, 10 mg/kg i.p., individual mice, read-out: [drug],brain (free base equivalent)) was < 120 ng/g. For the same molecule, the Tmax ([1]; male, Swiss-Webster, mouse, in vivo, ip, ·2HCl salts, 10 mg kg^-1 i.p., mice) was 0.5 h, the AUC(0-t) [1, 7] was 9450 ng·h/mL and the Tmax [1, 7] was 0.5 h. For the same molecule, the k el ([1]; male, Swiss-Webster, mouse, ip, plasma NCA, 10 mg/kg i.p., read-out: Lambda_z (converted)) was 6.68e-05 s⁻¹, the MRT inf ([1]; male, Swiss-Webster, mouse, ip, plasma NCA, 10 mg/kg i.p., read-out: MRT 0-inf_obs) was 2.18 h and the half-life ([1]; male, Swiss-Webster, mouse, ip, plasma NCA, 10 mg/kg i.p., read-out: t1/2 (converted)) was 2.88 h. It also gave a Cmax ([1]; male, Swiss-Webster, mouse, ip, plasma, 10 mg kg^-1 i.p., mice, read-out: C max,p) of 3080 ng/mL, a concentration at 0.5 h ([1]; male, Swiss-Webster, mouse, plasma, intraperitoneal, 0.5 h, read-out: Conc (plasma, NCA input)) of 3080 ng/mL and a concentration at 1 h ([1]; male, Swiss-Webster, mouse, plasma, intraperitoneal, 1 h, read-out: Conc (plasma, NCA input)) of 3020 ng/mL. The concentration at 2 h ([1]; male, Swiss-Webster, mouse, plasma, intraperitoneal, 2 h, read-out: Conc (plasma, NCA input)) was 2580 ng/mL, the concentration at 4 h ([1]; male, Swiss-Webster, mouse, plasma, intraperitoneal, 4 h, read-out: Conc (plasma, NCA input)) was 154 ng/mL and the concentration at 24 h ([1]; male, Swiss-Webster, mouse, plasma, intraperitoneal, 24 h, read-out: Conc (plasma, NCA input)) was 8.8 ng/mL. For the same molecule, the concentration at 0.5 h ([1]; male, Swiss-Webster, mouse, plasma, ip, 0.5 h, 10 mg/kg i.p., read-out: mean (plasma)) was 3080 ng/mL, the concentration at 1 h ([1]; male, Swiss-Webster, mouse, plasma, ip, 1 h, 10 mg/kg i.p., read-out: mean (plasma)) was 3020 ng/mL and the concentration at 2 h ([1]; male, Swiss-Webster, mouse, plasma, ip, 2 h, 10 mg/kg i.p., read-out: mean (plasma)) was 2580 ng/mL. It also gave a concentration at 4 h ([1]; male, Swiss-Webster, mouse, plasma, ip, 4 h, 10 mg/kg i.p., individual mice, read-out: [drug],plasma (free base equivalent)) of 142 ng/mL, a concentration at 4 h ([1]; male, Swiss-Webster, mouse, plasma, ip, 4 h, 10 mg/kg i.p., read-out: mean (plasma)) of 154 ng/mL and a concentration at 24 h ([1]; male, Swiss-Webster, mouse, plasma, ip, 24 h, 10 mg/kg i.p., individual mice, read-out: [drug],plasma (free base equivalent)) of 13 ng/mL. The concentration at 24 h ([1]; male, Swiss-Webster, mouse, plasma, ip, 24 h, 10 mg/kg i.p., <MRC substituted by MRC/2, read-out: mean (plasma)) was 9 ng/mL, the AUC(0-inf) ([1]; male, Swiss-Webster, mouse, plasma, ip, plasma NCA, 10 mg/kg i.p., read-out: AUC 0-inf_obs) was 9490 ng·h/mL and the CL/F ([1]; male, Swiss-Webster, mouse, plasma, ip, plasma NCA, 10 mg/kg i.p., read-out: Cl/F_obs (converted)) was 17.6 mL/min/kg. It also gave a Vd/F ([1]; male, Swiss-Webster, mouse, plasma, ip, plasma NCA, 10 mg/kg i.p., read-out: Vz/F_obs) of 4.38 L/kg, an AUC(0-inf) ([1]; male, Swiss-Webster, mouse, plasma, ip, plasma, 10 mg kg^-1 i.p., non-compartmental analysis, read-out: AUC 0–∞,p) of 9490 ng·h/mL and a CL/F ([1]; male, Swiss-Webster, mouse, plasma, ip, plasma, 10 mg kg^-1 i.p., non-compartmental analysis, read-out: CL/F (converted)) of 16.7 mL/min/kg. For the same molecule, the Vd/F ([1]; male, Swiss-Webster, mouse, plasma, ip, plasma, 10 mg kg^-1 i.p., non-compartmental analysis, read-out: V z /F) was 4.4 L/kg, the “AUMC 0-inf_obs” value ([1]; plasma NCA, 10 mg/kg i.p.) was 20681.1 ng/ml*h^2 and the Tlag ([1]; plasma NCA, 10 mg/kg i.p.) was 0 h. For the same molecule, the “C max,brain,u” value ([1]; unbound brain, 10 mg kg^-1 i.p., in vivo brain binding assumed at least 3-fold greater than homogenate) was < 6 nM, the logD ([2]; 1-octanol/PBS, pH 7.4, pooled mixing times 1, 10, 30 min) was -0.08 and the logD at 1 min ([2]; 1-octanol/PBS, mixing time 1 min, octanol/PBS pH 7.4) was -0.07. For the same molecule, the logD at 10 min ([2]; 1-octanol/PBS, mixing time 10 min, octanol/PBS pH 7.4) was -0.11, the logD at 30 min ([2]; 1-octanol/PBS, mixing time 30 min, octanol/PBS pH 7.4) was -0.0527 and the “Log10D7.4 octanol:buffer (pH 7.4)” value ([2]; mean, n = 3) was -0.1. The fraction unbound at 5 h, 5 μM [3] was 0.28.
